Reference: patent publication US12703729B2, “GIP agonist compounds and methods” (Zealand Pharma A/S, priority 2014, dated 2026)
Starred links: 1 amine or outer side, 2 acyl side, 3 side chain; linkers in the order of their positions; H or OH if unused. Non-standard residues stand in square brackets, D forms with d. Residues, ends and D or L forms follow the SMILES beside them. Groups on a side chain read outwards from the residue. *: point of attachment. X1 = O=C(O)CCCCCCCCCCCCCCCCCCC(=O)N1CCN(CC(=O)*)CC1; C20 diacid = O=C(O)CCCCCCCCCCCCCCCCCCC(=O)*; γGlu = O=C(O)[C@H](CCC(=O)[*:2])N[*:1]; AEEA = NCCOCCOCC(=O)O; Aib = CC(C)(N)C(=O)O

Columns and labels:
[1] = target: T1, human GIP receptor (GIP R) (Homo sapiens, UniProt P48546); assay: Activity assay at human GIP receptor, cAMP induction (AlphaScreen), Example 3
T1 sequence (P48546 22-466): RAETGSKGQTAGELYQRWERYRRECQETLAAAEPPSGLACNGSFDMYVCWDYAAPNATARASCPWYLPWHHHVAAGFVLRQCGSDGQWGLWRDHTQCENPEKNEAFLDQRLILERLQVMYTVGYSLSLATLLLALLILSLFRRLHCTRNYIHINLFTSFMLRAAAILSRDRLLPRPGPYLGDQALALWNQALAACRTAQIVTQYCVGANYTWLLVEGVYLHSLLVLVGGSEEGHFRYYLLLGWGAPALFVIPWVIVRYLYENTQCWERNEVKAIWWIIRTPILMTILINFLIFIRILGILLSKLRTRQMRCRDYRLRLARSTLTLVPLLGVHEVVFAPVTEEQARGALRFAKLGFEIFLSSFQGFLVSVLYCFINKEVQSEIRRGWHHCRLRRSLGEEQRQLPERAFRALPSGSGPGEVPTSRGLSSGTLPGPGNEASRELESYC

human GIP R = target: T2, human GIP R (Homo sapiens, UniProt P48546); assay: cell-based
T2 sequence (P48546 22-466): T1 sequence (P48546 22-466)

in vivo = conditions: male, C57BL/6J, mouse; for bioavailability: Bioavailability s.c.; for half-life: 200 nmol/kg
[2] = target: human GLP-1 receptor (GLP-1R) (Homo sapiens, UniProt P43220); assay: Activity assay at human GLP-1 receptor, cAMP induction (AlphaScreen), Example 3
[3] = iv, Terminal elimination half-life T½ i.v.
[4] = sc, Terminal elimination half-life T½ s.c.

Chain of human GLP-1 receptor (GLP-1R) (P43220 24-463): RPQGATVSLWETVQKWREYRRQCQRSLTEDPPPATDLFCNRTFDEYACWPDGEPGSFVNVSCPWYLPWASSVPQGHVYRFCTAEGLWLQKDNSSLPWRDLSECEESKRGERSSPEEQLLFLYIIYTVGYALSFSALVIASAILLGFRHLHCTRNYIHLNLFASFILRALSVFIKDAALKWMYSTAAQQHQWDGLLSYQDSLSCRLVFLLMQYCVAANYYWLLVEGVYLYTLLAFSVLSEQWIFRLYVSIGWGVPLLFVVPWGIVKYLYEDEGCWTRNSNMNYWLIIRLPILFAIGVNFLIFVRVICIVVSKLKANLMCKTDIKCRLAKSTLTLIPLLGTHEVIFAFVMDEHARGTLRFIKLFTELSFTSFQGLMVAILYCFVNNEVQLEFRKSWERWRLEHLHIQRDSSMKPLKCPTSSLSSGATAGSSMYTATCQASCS

| Structure (SMILES) | EC50 [1] | EC50 (human GIP R) | bioavailability (in vivo) | half-life (in vivo; [3]) | Tmax (in vivo; sc) | half-life (in vivo; [4]) | EC50 [2] | bioavailability (in vivo; sc, repeated test) |
| --- | --- | --- | --- | --- | --- | --- | --- | --- |
| CC[C@H](C)[C@H](NC(=O)[C@H](CO)NC(=O)[C@H](Cc1ccc(O)cc1)NC(=O)[C@H](CC(=O)O)NC(=O)[C@H](CO)NC(=O)[C@@H](NC(=O)[C@H](Cc1ccccc1)NC(=O)[C@@H](NC(=O)CNC(=O)[C@H](CCC(=O)O)NC(=O)C(C)(C)NC(=O)[C@@H](N)Cc1ccc(O)cc1)[C@@H](C)O)[C@@H](C)CC)C(=O)N[C@@H](CCC(=O)O)C(=O)N[C@@H](CC(C)C)C(=O)N[C@@H](CC(=O)O)C(=O)N[C@@H](CCCCN)C(=O)N[C@@H](CCCCNC(=O)COCCOCCNC(=O)COCCOCCNC(=O)CC[C@H](NC(=O)CCCCCCCCCCCCCCCCCCC(=O)O)C(=O)O)C(=O)N[C@@H](C)C(=O)N[C@@H](CCC(N)=O)C(=O)N[C@@H](CCCNC(=N)N)C(=O)N[C@@H](C)C(=O)N[C@@H](Cc1ccccc1)C(=O)N[C@H](C(=O)N[C@@H](CCC(=O)O)C(=O)N[C@@H](Cc1c[nH]c2ccccc12)C(=O)N[C@@H](CC(C)C)C(=O)N[C@@H](CC(C)C)C(=O)N[C@@H](C)C(=O)N[C@@H](CCC(N)=O)C(=O)NCC(=O)N1CCC[C@H]1C(=O)N[C@@H](CO)C(=O)N[C@@H](CO)C(=O)NCC(=O)N[C@@H](C)C(=O)N1CCC[C@H]1C(=O)N1CCC[C@H]1C(=O)N1CCC[C@H]1C(=O)N[C@@H](CO)C(N)=O)C(C)C [Compound 17] (H-Y[Aib]EGTFISDYSIELDKK([AEEA-AEEA-γGlu-C20 diacid])AQRAFVEWLLAQGPSSGAPPPS-NH2) | 16 pM | 7 pM | 56% | 16.3 h | 8 h | 19.9 h | > 3000 pM | – |
| CC[C@H](C)[C@H](NC(=O)[C@H](CO)NC(=O)[C@H](Cc1ccc(O)cc1)NC(=O)[C@H](CC(=O)O)NC(=O)[C@H](CO)NC(=O)[C@@H](NC(=O)[C@H](Cc1ccccc1)NC(=O)[C@@H](NC(=O)CNC(=O)[C@H](CCC(=O)O)NC(=O)C(C)(C)NC(=O)[C@@H](N)Cc1ccc(O)cc1)[C@@H](C)O)[C@@H](C)CC)C(=O)N[C@@H](CCC(=O)O)C(=O)N[C@@H](CC(C)C)C(=O)N[C@@H](CC(=O)O)C(=O)N[C@@H](CCCCN)C(=O)N[C@@H](CCCCNC(=O)COCCOCCNC(=O)COCCOCCNC(=O)CN1CCN(C(=O)CCCCCCCCCCCCCCCCCCC(=O)O)CC1)C(=O)N[C@@H](C)C(=O)N[C@@H](CCC(N)=O)C(=O)N[C@@H](CCCCN)C(=O)N[C@@H](CCC(=O)O)C(=O)N[C@@H](Cc1ccccc1)C(=O)N[C@H](C(=O)N[C@@H](CCC(=O)O)C(=O)N[C@@H](Cc1c[nH]c2ccccc12)C(=O)N[C@@H](CC(C)C)C(=O)N[C@@H](CC(C)C)C(=O)N[C@@H](C)C(=O)N[C@@H](C)C(=O)NCC(=O)N1CCC[C@H]1C(=O)N[C@@H](CO)C(=O)N[C@@H](CO)C(=O)NCC(=O)N[C@@H](C)C(=O)N1CCC[C@H]1C(=O)N1CCC[C@H]1C(=O)N1CCC[C@H]1C(=O)N[C@@H](CO)C(N)=O)C(C)C [Compound 21] (H-Y[Aib]EGTFISDYSIELDKK([AEEA-AEEA-X1])AQKEFVEWLLAAGPSSGAPPPS-NH2) | 6 pM | 7 pM | 67% | 24.8 h | 8 h | 21 h | > 3000 pM | – |
| CC[C@H](C)[C@H](NC(=O)[C@H](CCCCN)NC(=O)[C@H](CC(=O)O)NC(=O)[C@H](CC(C)C)NC(=O)[C@H](CCC(=O)O)NC(=O)[C@H](CCCCNC(=O)COCCOCCNC(=O)COCCOCCNC(=O)CC[C@H](NC(=O)CCCCCCCCCCCCCCCCCCC(=O)O)C(=O)O)NC(=O)[C@H](CO)NC(=O)[C@H](Cc1ccc(O)cc1)NC(=O)[C@H](CC(=O)O)NC(=O)[C@H](CO)NC(=O)[C@@H](NC(=O)[C@H](Cc1ccccc1)NC(=O)[C@@H](NC(=O)CNC(=O)[C@H](CCC(=O)O)NC(=O)C(C)(C)NC(=O)[C@@H](N)Cc1ccc(O)cc1)[C@@H](C)O)[C@@H](C)CC)C(=O)N[C@@H](C)C(=O)N[C@@H](CCC(N)=O)C(=O)N[C@@H](CCCNC(=N)N)C(=O)N[C@@H](C)C(=O)N[C@@H](Cc1ccccc1)C(=O)N[C@H](C(=O)N[C@@H](CCC(=O)O)C(=O)N[C@@H](Cc1c[nH]c2ccccc12)C(=O)N[C@@H](CC(C)C)C(=O)N[C@@H](CC(C)C)C(=O)N[C@@H](C)C(=O)N[C@@H](CCC(N)=O)C(=O)NCC(=O)N1CCC[C@H]1C(=O)N[C@@H](CO)C(=O)N[C@@H](CO)C(=O)NCC(=O)N[C@@H](C)C(=O)N1CCC[C@H]1C(=O)N1CCC[C@H]1C(=O)N1CCC[C@H]1C(=O)N[C@@H](CO)C(N)=O)[C@@H](C)CC [Compound 35] (H-Y[Aib]EGTFISDYSK([AEEA-AEEA-γGlu-C20 diacid])ELDKIAQRAFIEWLLAQGPSSGAPPPS-NH2) | 11 pM | 8 pM | 73% | 14.5 h | 4 h | 14.5 h | > 3000 pM | – |
| CC[C@H](C)[C@H](NC(=O)[C@H](Cc1ccccc1)NC(=O)[C@H](C)NC(=O)[C@H](CCCNC(=N)N)NC(=O)[C@H](CCC(N)=O)NC(=O)[C@H](C)NC(=O)[C@H](CCCCNC(=O)COCCOCCNC(=O)COCCOCCNC(=O)CC[C@H](NC(=O)CCCCCCCCCCCCCCCCCCC(=O)O)C(=O)O)NC(=O)[C@H](CCCCN)NC(=O)[C@H](CC(=O)O)NC(=O)[C@H](CC(C)C)NC(=O)[C@H](CCC(=O)O)NC(=O)[C@@H](NC(=O)[C@H](CO)NC(=O)[C@H](Cc1ccc(O)cc1)NC(=O)[C@H](CC(=O)O)NC(=O)[C@H](CO)NC(=O)[C@@H](NC(=O)[C@H](Cc1ccccc1)NC(=O)[C@@H](NC(=O)CNC(=O)[C@H](CCC(=O)O)NC(=O)C(C)(C)NC(=O)[C@@H](N)Cc1ccc(O)cc1)[C@@H](C)O)[C@@H](C)CC)[C@@H](C)CC)C(=O)N[C@@H](CCC(=O)O)C(=O)N[C@@H](Cc1c[nH]c2ccccc12)C(=O)N[C@@H](CC(C)C)C(=O)N[C@@H](CC(C)C)C(=O)N[C@@H](C)C(=O)N[C@@H](CCC(N)=O)C(=O)NCC(=O)N1CCC[C@H]1C(=O)N[C@@H](CO)C(=O)N[C@@H](CO)C(=O)NCC(=O)N[C@@H](C)C(=O)N1CCC[C@H]1C(=O)N1CCC[C@H]1C(=O)N1CCC[C@H]1C(=O)N[C@@H](CO)C(N)=O [Compound 18] (H-Y[Aib]EGTFISDYSIELDKK([AEEA-AEEA-γGlu-C20 diacid])AQRAFIEWLLAQGPSSGAPPPS-NH2) | 7 pM | 6 pM | 78% | 17.6 h | 4 h | 15.1 h | > 3000 pM | – |
| CC[C@H](C)[C@H](NC(=O)[C@H](CO)NC(=O)[C@H](Cc1ccc(O)cc1)NC(=O)[C@H](CC(=O)O)NC(=O)[C@H](CO)NC(=O)[C@@H](NC(=O)[C@H](Cc1ccccc1)NC(=O)[C@@H](NC(=O)CNC(=O)[C@H](CCC(=O)O)NC(=O)C(C)(C)NC(=O)[C@@H](N)Cc1ccc(O)cc1)[C@@H](C)O)[C@@H](C)CC)C(=O)N[C@@H](CCC(=O)O)C(=O)N[C@@H](CC(C)C)C(=O)N[C@@H](CC(=O)O)C(=O)N[C@@H](CCCCN)C(=O)N[C@@H](CCCCNC(=O)COCCOCCNC(=O)COCCOCCNC(=O)CC[C@H](NC(=O)CCCCCCCCCCCCCCCCCCC(=O)O)C(=O)O)C(=O)N[C@@H](C)C(=O)N[C@@H](C)C(=O)N[C@@H](CCC(N)=O)C(=O)N[C@@H](CC(=O)O)C(=O)N[C@@H](Cc1ccccc1)C(=O)N[C@H](C(=O)N[C@@H](CC(N)=O)C(=O)N[C@@H](Cc1c[nH]c2ccccc12)C(=O)N[C@@H](CC(C)C)C(=O)N[C@@H](CC(C)C)C(=O)N[C@@H](C)C(=O)N[C@@H](CCC(N)=O)C(=O)NCC(=O)N1CCC[C@H]1C(=O)N[C@@H](CO)C(=O)N[C@@H](CO)C(=O)NCC(=O)N[C@@H](C)C(=O)N1CCC[C@H]1C(=O)N1CCC[C@H]1C(=O)N1CCC[C@H]1C(=O)N[C@@H](CO)C(N)=O)C(C)C [Compound 10] (H-Y[Aib]EGTFISDYSIELDKK([AEEA-AEEA-γGlu-C20 diacid])AAQDFVNWLLAQGPSSGAPPPS-NH2) | 8 pM | 7 pM | 100% | 16.9 h | 4 h | 21.1 h | > 10000 pM | 77% |
| CC[C@H](C)[C@H](NC(=O)[C@H](Cc1ccccc1)NC(=O)[C@H](C)NC(=O)[C@H](CCC(N)=O)NC(=O)[C@H](C)NC(=O)[C@H](C)NC(=O)[C@H](CCCCNC(=O)COCCOCCNC(=O)COCCOCCNC(=O)CN1CCN(C(=O)CCCCCCCCCCCCCCCCCCC(=O)O)CC1)NC(=O)[C@H](CCCCN)NC(=O)[C@H](CC(=O)O)NC(=O)[C@H](CC(C)C)NC(=O)[C@H](CCC(=O)O)NC(=O)[C@@H](NC(=O)[C@H](CO)NC(=O)[C@H](Cc1ccc(O)cc1)NC(=O)[C@H](CC(=O)O)NC(=O)[C@H](CO)NC(=O)[C@@H](NC(=O)[C@H](Cc1ccccc1)NC(=O)[C@@H](NC(=O)CNC(=O)[C@H](CCC(=O)O)NC(=O)C(C)(C)NC(=O)[C@@H](N)Cc1ccc(O)cc1)[C@@H](C)O)[C@@H](C)CC)[C@@H](C)CC)C(=O)N[C@@H](CCC(=O)O)C(=O)N[C@@H](Cc1c[nH]c2ccccc12)C(=O)N[C@@H](CC(C)C)C(=O)N[C@@H](CC(C)C)C(=O)N[C@@H](C)C(=O)N[C@@H](CCC(N)=O)C(=O)NCC(=O)N1CCC[C@H]1C(=O)N[C@@H](CO)C(=O)N[C@@H](CO)C(=O)NCC(=O)N[C@@H](C)C(=O)N1CCC[C@H]1C(=O)N1CCC[C@H]1C(=O)N1CCC[C@H]1C(=O)N[C@@H](CO)C(N)=O [Compound 41] | 10 pM | 14 pM | 70% | 17.6 h | 8 h | 16.5 h | > 10000 pM | – |
